Results taken from patent US8003119B2, “Composition for pharmaceutical or dietetic use for combating hair loss” (Giuliani S.p.A., priority 2002, dated 2011).

How the values were obtained:
Type in all cases: in vivo, man
[1] = tested on: volunteers with telogenic defluvium; test: Clinical study: trichogram (evaluation of the hair bulbs by phase)
Description: (§1) This controlled, randomized double-blind study was performed according to the present invention by means of the protocols below.
(§2) Sixty volunteers of both sexes and ranging between 18 and 60 years old were divided into three groups of 20 individuals each, all having the same level of pathology, i.e. telogenic defluvium existing for at least 2 months.
(§3) Some of these individuals were treated for 60 days with one capsule a day of a composition of the invention, according to the following scheme:
(§4) Group 1: 20 individuals treated with a composition of the invention containing spermidine alone (0.50 mg per capsule).
(§5) Group 2: 20 individuals treated with a composition of the invention according to Example 1 described later (spermidine 0.50 mg per capsule).
(§6) Group 3: 20 individuals treated with a placebo, in capsules.
(§7) The parameters evaluated were the following: • A) General dermatological visit. • B) Microscopic evaluation of the shaft of the hairs (diameter and possible structural changes in the hair). • C) Trichogram, i.e. evaluation of the bulbs in the anagenic (growth) phase, catagenic (involutive stasis) phase, telogenic (pathological precocious hair loss) phase and exogenic (physiological loss of hairs since they are replaced with new hairs). • D) Haematochemical analysis. • E) Pull test (mechanical tensile strength of the hair). • F) Wash test (count of the hairs lost after washing with shampoo). • G) Possible side effects.
(§8) These parameters were evaluated at time T0 (before the start of the treatment); at time T1 (at the end of the 60 days of treatment); and finally at time T2 (30 days after stopping the administration).
In this regard, reference is made to the diagrams of FIGS. 1 and 2 in the attached drawings. These show the trichogram of the anagenic and telogenic phases at times T0 (before the start of the treatment); at time T1 (at the end of the 60 days of treatment); and finally at time T2 (30 days after stopping the administration) for the individuals of the three groups, 1 (grey column), 2 (black column) and 3 (pale column). The percentage of hairs in the anagenic phase (FIG. 1) and in the telogenic phase (FIG. 2) for the treated individuals belonging to the three groups under consideration is shown on the y-axis, and the said times T are shown on the x-axis, under which are tabulated the said percentages found.

[2] = tested on: volunteers with telogenic defluvium; test: Clinical study: haematochemical analysis; details: oral, one capsule a day for 60 days
Description: as §1, §2, §3, §4
(§9) Group 2: 20 individuals treated with a composition of the invention according to Example 1 described later (spermidine 0.50 mg per capsule). […]
as §7, with “effects. […]” for “effects.”

[3] = tested on: volunteers with telogenic defluvium; test: Clinical study: microscopic evaluation of the hair shaft; details: oral, one capsule a day (spermidine 0.50 mg) for 60 days; placebo virtually unchanged
Description: as §1, §2, §3, §4, §9
as §7, with “effects. […]” for “effects.”

[4] = tested on: volunteers with telogenic defluvium; test: Clinical study: wash test (count and phase of hairs lost after shampoo)
Description: as §1, §2, §3, §4, §5, §6, §7, §8
This test makes it possible not only to quantify the number of hairs lost after shampooing, but also, by means of a suitable microscopic analysis, to evaluate the phase of the cycle in which the bulb was found when the hair fell out: pathological loss (telogenic) or phase of physiological exchange (exogenic).
The test results are given in the graph of FIG. 3 in the attached drawings. […]

[5] = tested on: volunteers with telogenic defluvium; test: Clinical study: general dermatological visit; details: oral, one capsule a day (spermidine 0.50 mg) for 60 days; compared with placebo group 3
Description: as §1, §2, §3, §4, §9
as §7, with “effects. […]” for “effects.”

[6] = tested on: volunteers with telogenic defluvium; test: Clinical study: pull test (mechanical tensile strength of the hair); details: oral, one capsule a day for 60 days; placebo virtually unchanged
Description: as §1, §2, §3, §4, §9
as §7, with “effects. […]” for “effects.”

[7] = oral, one capsule a day for 60 days, placebo not significantly changed

**Q.** What does the source list for NCCCCNCCCN [spermidine, N-(3-aminopropyl)tetramethylenediamine]?
**A.** increase in the anagenic phase at T1 ([1]; T1 = end of the 60 days of treatment, relative to T0, placebo 2.7%): 8.1%; decrease in the telogenic phase at T1 ([1]; T1 = end of the 60 days of treatment, placebo increased by about 1.88%): 9.1%; decrease in the telogenic phase at T2 ([1]; T2 = 30 days after stopping the 60-day administration, placebo 4.16%): 6.76%; increase in the anagenic phase at T2 relative to T0 ([1]; T2 = 30 days after stopping the 60-day administration, placebo 7.79%): 17.2%; number of bulbs in the anagenic phase (in words) [1, 7]: increases significantly; telogenic phase (in words) [1, 7]: decreases significantly; haematochemical analyses [2]: within the norm; diameter of the hair shaft [3]: increases quite substantially; lost hairs in the telogenic phase (pathological loss) ([4]; bulbs of hairs lost in the wash test, placebo more than 90%): 63%; lost hairs in the exogenic phase (physiological loss) ([4]; bulbs of hairs lost in the wash test, placebo only 3%): 33%; number of hairs lost in the wash test ([4]; oral, one capsule a day for 60 days, placebo unchanged): decreases significantly; hair loss at dermatological visit [5]: appreciable and significant reduction in the hair loss; structure of the hair shaft at dermatological visit [5]: improvement in the structure of the shaft; mechanical tensile strength of the hair (pull test) [6]: increased significantly
